{"source": "paper PMC8571282", "about": "(Nature Communications, 2021)", "key": {"SARS-CoV-2 WA1/2020": {"test_system": "SARS-CoV-2 WA1/2020", "type": "in vivo, ferret (Mustela putorius furo)"}, "[1]": {"test_system": "SARS-CoV-2 VOC γ (BZ/2021)", "type": "in vivo, ferret (Mustela putorius furo)"}, "“F2” primary HAE cells": {"test_system": "“F2” primary HAE cells", "experiment": "Cytotoxicity assay (PrestoBlue), “F2” HAE", "details": "72 h; for % cell viability: F2 HAE"}, "HEp-2 cells": {"test_system": "HEp-2 cells", "experiment": "Cytotoxicity assay (PrestoBlue), HEp-2", "details": "for % cell viability: 72 h"}, "[2]": {"details": "Fig 4b, […], 10 mg/kg b.i.d., Time 0.0"}, "[3]": {"details": "Fig 4b, […], 10 mg/kg b.i.d., Time 0.5"}, "[4]": {"details": "Fig 4b, […], 10 mg/kg b.i.d., Time 1.0"}, "[5]": {"details": "Fig 4b, […], 10 mg/kg b.i.d., Time 1.5"}, "[6]": {"details": "Fig 4b, […], 10 mg/kg b.i.d., Time 2.0"}, "[7]": {"details": "Fig 4b, […], 10 mg/kg b.i.d., Time 2.5"}, "[8]": {"details": "Fig 4b, […], 10 mg/kg b.i.d., Time 3.0"}, "[9]": {"details": "Fig 4b, […], 10 mg/kg b.i.d., Time 3.5"}, "[10]": {"details": "Fig 4b, […], 10 mg/kg b.i.d., Time 4.0"}, "[11]": {"details": "Fig 4b, […], 10 mg/kg b.i.d., all 9 time points"}, "[12]": {"details": "headed Fig 3c, […], 10 mg/kg b.i.d., Time 0"}, "[13]": {"details": "headed Fig 3c, […], 10 mg/kg b.i.d., Time 1"}, "[14]": {"details": "headed Fig 3c, […], 10 mg/kg b.i.d., Time 2"}, "[15]": {"details": "headed Fig 3c, […], 10 mg/kg b.i.d., Time 3"}, "[16]": {"details": "headed Fig 3c, […], 10 mg/kg b.i.d., Time 4"}, "[17]": {"details": "headed Fig 3c, […], 10 mg/kg b.i.d., all 5 time points"}}, "note": "Where “and” joins values, the source holds several entries; their conditions need not be identical. Equal values may be shown once. Read-outs that look alike come from different tables or passages of the source.", "data": [{"smiles": "CC(C)C(=O)OCC1OC(C#N)(c2ccc3c(N)ncnn23)C(OC(=O)C(C)C)C1OC(=O)C(C)C", "note": "(stereo not shown) [GS-621763]", "values": [{"measurement": "Transform of Nasal turbinate titers, Difference between means (C - A) ± SEM", "setting": "SARS-CoV-2 WA1/2020; Fig 2f, treated minus Vehicle, 20 mg kg-1 b.i.d., unpaired t test", "value": "-2.239 ± 0.3026"}, {"measurement": "Transform of Small Intestine copies/gram, Mean (treated)", "setting": "SARS-CoV-2 WA1/2020; Fig 2i, 20 mg kg-1 b.i.d., sample size 4", "value": 0}, {"measurement": "Transform of Small Intestine copies/gram, Difference between means (C - A) ± SEM", "setting": "SARS-CoV-2 WA1/2020; Fig 2i, treated minus Vehicle, 20 mg kg-1 b.i.d., unpaired t test", "value": "-1.018 ± 1.018"}, {"measurement": "Transform of Large Intestine copies/gram, Mean (treated)", "setting": "SARS-CoV-2 WA1/2020; Fig 2j, 20 mg kg-1 b.i.d., sample size 4", "value": 0}, {"measurement": "Transform of Large Intestine copies/gram, Difference between means (C - A) ± SEM", "setting": "SARS-CoV-2 WA1/2020; Fig 2j, treated minus Vehicle, 20 mg kg-1 b.i.d., unpaired t test", "value": "-1.911 ± 1.104"}, {"measurement": "Transform of Nasal Turbinate RNA copies/g, Mean (treated)", "setting": "SARS-CoV-2 WA1/2020; Fig 2h, 20 mg kg-1 b.i.d., sample size 4", "value": 3.868}, {"measurement": "Transform of Nasal Turbinate RNA copies/g, Difference between means (C - A) ± SEM", "setting": "SARS-CoV-2 WA1/2020; Fig 2h, treated minus Vehicle, 20 mg kg-1 b.i.d., unpaired t test", "value": "-2.950 ± 0.3528"}, {"measurement": "SARS-CoV-2 RNA copies in lungs", "setting": "SARS-CoV-2 WA1/2020; in vivo", "value": "not detected"}, {"measurement": "SARS-CoV-2 infectious particles in lungs", "setting": "SARS-CoV-2 WA1/2020; in vivo", "value": 109, "unit": "pfu"}, {"measurement": "Virus titers from nasal lavages", "setting": "SARS-CoV-2 WA1/2020; in vivo", "value": 9, "unit": "pfu"}, {"measurement": "shed SARS-CoV-2 load in nasal lavages", "setting": "SARS-CoV-2 WA1/2020; in vivo", "value": "transiently detectable in lavages of only one ferret"}, {"measurement": "viral RNA copy numbers in turbinates, difference between vehicle and treatment groups", "setting": "SARS-CoV-2 WA1/2020; in vivo", "value": "three"}, {"measurement": "virus in nasal turbinates 4 days after infection", "setting": "SARS-CoV-2 WA1/2020; in vivo", "value": "undetectable"}, {"measurement": "Nasal lavage titer, Mean Diff. Vehicle - GS-621763", "setting": "[1]; [2]", "value": 0}, {"measurement": "Nasal lavage titer, group mean (Mean 2; Transform of Brazil - Nasal Lavage Titer)", "setting": "[1]; [2]", "value": 0.699}, {"measurement": "Nasal lavage titer, Mean Diff. Vehicle - GS-621763", "setting": "[1]; [3]", "value": 0}, {"measurement": "Nasal lavage titer, group mean (Mean 2; Transform of Brazil - Nasal Lavage Titer)", "setting": "[1]; [3]", "value": 0.699}, {"measurement": "Nasal lavage titer, Mean Diff. Vehicle - GS-621763", "setting": "[1]; [4]", "value": 0}, {"measurement": "Nasal lavage titer, group mean (Mean 2; Transform of Brazil - Nasal Lavage Titer)", "setting": "[1]; [4]", "value": 0.699}, {"measurement": "Nasal lavage titer, Mean Diff. Vehicle - GS-621763", "setting": "[1]; [5]", "value": 0.7768}, {"measurement": "Nasal lavage titer, group mean (Mean 2; Transform of Brazil - Nasal Lavage Titer)", "setting": "[1]; [5]", "value": 0.699}, {"measurement": "Nasal lavage titer, Mean Diff. Vehicle - GS-621763", "setting": "[1]; [6]", "value": 1.969}, {"measurement": "Nasal lavage titer, group mean (Mean 2; Transform of Brazil - Nasal Lavage Titer)", "setting": "[1]; [6]", "value": 0.8495}, {"measurement": "Nasal lavage titer, Mean Diff. Vehicle - GS-621763", "setting": "[1]; [7]", "value": 2.801}, {"measurement": "Nasal lavage titer, group mean (Mean 2; Transform of Brazil - Nasal Lavage Titer)", "setting": "[1]; [7]", "value": 0.7742}, {"measurement": "Nasal lavage titer, Mean Diff. Vehicle - GS-621763", "setting": "[1]; [8]", "value": 2.882}, {"measurement": "Nasal lavage titer, group mean (Mean 2; Transform of Brazil - Nasal Lavage Titer)", "setting": "[1]; [8]", "value": 0.7742}, {"measurement": "Nasal lavage titer, Mean Diff. Vehicle - GS-621763", "setting": "[1]; [9]", "value": 2.92}, {"measurement": "Nasal lavage titer, group mean (Mean 2; Transform of Brazil - Nasal Lavage Titer)", "setting": "[1]; [9]", "value": 0.699}, {"measurement": "Nasal lavage titer, Mean Diff. Vehicle - GS-621763", "setting": "[1]; [10]", "value": 2.821}, {"measurement": "Nasal lavage titer, group mean (Mean 2; Transform of Brazil - Nasal Lavage Titer)", "setting": "[1]; [10]", "value": 0.699}, {"measurement": "Nasal lavage titer, column mean of GS-621763 over all times", "setting": "[1]; [11]", "value": 0.7324}, {"measurement": "Nasal lavage titer, difference between column means (Vehicle - GS-621763)", "setting": "[1]; [11]", "value": 1.574}, {"measurement": "Nasal turbinate RNA, Mean Diff. Vehicle vs. GS-621763", "setting": "[1]; Fig 4e, […], 10 mg/kg b.i.d.", "value": 3.96}, {"measurement": "Nasal turbinate RNA, group mean of GS-621763-treated source animals (Transform of Brazil - Nasal Turbinate RNA)", "setting": "[1]; Fig 4e, […], 10 mg/kg b.i.d.", "value": 5.208}, {"measurement": "Turbinate titers, Mean Diff. Vehicle vs. GS-621763", "setting": "[1]; Fig 4d, […], 10 mg/kg b.i.d.", "value": 3.511}, {"measurement": "Turbinate titers, group mean of GS-621763-treated source animals (Transform of Brazil - Turbinate Titers)", "setting": "[1]; Fig 4d, […], 10 mg/kg b.i.d.", "value": 0.9542}, {"measurement": "Nasal lavage RNA, Mean Diff. Vehicle - GS-621763", "setting": "[1]; [12]", "value": 0}, {"measurement": "Nasal lavage RNA, group mean (Mean 2; Transform of Brazil - Nasal Lavage RNA)", "setting": "[1]; [12]", "value": 0}, {"measurement": "Nasal lavage RNA, Mean Diff. Vehicle - GS-621763", "setting": "[1]; [13]", "value": 0.6874}, {"measurement": "Nasal lavage RNA, group mean (Mean 2; Transform of Brazil - Nasal Lavage RNA)", "setting": "[1]; [13]", "value": 2.265}, {"measurement": "Nasal lavage RNA, Mean Diff. Vehicle - GS-621763", "setting": "[1]; [14]", "value": 3.062}, {"measurement": "Nasal lavage RNA, group mean (Mean 2; Transform of Brazil - Nasal Lavage RNA)", "setting": "[1]; [14]", "value": 2.426}, {"measurement": "Nasal lavage RNA, Mean Diff. Vehicle - GS-621763", "setting": "[1]; [15]", "value": 4.178}, {"measurement": "Nasal lavage RNA, group mean (Mean 2; Transform of Brazil - Nasal Lavage RNA)", "setting": "[1]; [15]", "value": 2.173}, {"measurement": "Nasal lavage RNA, Mean Diff. Vehicle - GS-621763", "setting": "[1]; [16]", "value": 3.536}, {"measurement": "Nasal lavage RNA, group mean (Mean 2; Transform of Brazil - Nasal Lavage RNA)", "setting": "[1]; [16]", "value": 2.653}, {"measurement": "Nasal lavage RNA, column mean of GS-621763 over all times", "setting": "[1]; [17]", "value": 1.903}, {"measurement": "Nasal lavage RNA, difference between column means (Vehicle - GS-621763)", "setting": "[1]; [17]", "value": 2.293}, {"measurement": "Infectious virus titer in nasal lavage (Fig 4B)", "setting": "[1]; in vivo, 10 mg/kg", "value": "5 pfu and 10 pfu"}, {"measurement": "SARS-CoV-2 RNA copies in lungs (Fig 4G)", "setting": "[1]; in vivo, 10 mg/kg", "value": "not detected"}, {"measurement": "lowering of viral RNA copies in nasal lavages and turbinates", "setting": "[1]; in vivo, po, 10 mg/kg", "value": "over three orders of magnitude"}, {"measurement": "shed virus burden and tissue titers", "setting": "[1]; in vivo, po, 10 mg/kg", "value": "undetectable levels"}, {"measurement": "% cell viability", "setting": "“F2” primary HAE cells; 0.046 µM", "value": "84% and 81%"}, {"measurement": "% cell viability", "setting": "“F2” primary HAE cells; 1.235 µM", "value": 109, "unit": "%"}, {"measurement": "% cell viability", "setting": "“F2” primary HAE cells; 3.704 µM", "value": 109, "unit": "%"}, {"measurement": "% cell viability", "setting": "“F2” primary HAE cells; 33.333 µM", "value": "87% and 80%"}, {"measurement": "CC50", "setting": "“F2” primary HAE cells; “F2” HAE", "value": 43.8, "unit": "µM"}, {"measurement": "% cell viability", "setting": "HEp-2 cells; HEp-2, 0.046 µM, 0.046 µM", "value": "67% and 49%"}, {"measurement": "% cell viability", "setting": "HEp-2 cells; HEp-2, 3.704 µM, 3.704 µM", "value": "107% and 97%"}, {"measurement": "CC50", "setting": "HEp-2 cells; HEp-2, 72 h", "value": 79.4, "unit": "µM"}]}]}
